# pIC50: −log10 of the molar value.
# Columns and labels:
# HDAC11 = target: T1, HDAC11 (Homo sapiens, UniProt Q96DB2); experiment: In vitro HDAC activity assay (Reaction Biology); type: biochemical; conditions: cell-free; read-out: IC50 values of HDAC8 inhibitors, HDAC11
# T1 sequence (Q96DB2 14-326 limits assumed): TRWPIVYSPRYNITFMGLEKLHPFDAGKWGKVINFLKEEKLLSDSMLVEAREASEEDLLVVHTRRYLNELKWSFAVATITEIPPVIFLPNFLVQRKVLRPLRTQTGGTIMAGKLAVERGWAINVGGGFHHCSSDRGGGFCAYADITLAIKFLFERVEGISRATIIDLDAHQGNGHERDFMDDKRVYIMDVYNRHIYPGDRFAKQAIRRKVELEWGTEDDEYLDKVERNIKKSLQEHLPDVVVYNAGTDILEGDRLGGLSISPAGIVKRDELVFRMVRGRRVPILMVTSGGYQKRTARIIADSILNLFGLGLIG
# Description: (§1) Peptide substrate was conjugated with AMC. […] The HDAC reaction was performed at 30 °C for 2 h before adding the developer reagent. The free AMC was detected with excitation of 360 nm and emission 460 nm at kinetic mode for 90 min. IC50 values were calculated with GraphPad Prism version 3.0a (GraphPad Software Inc., San Diego, CA, USA).
# HDAC6 = target: T2, HDAC6 (Homo sapiens, UniProt Q9UBN7); experiment: In vitro HDAC activity assay (Reaction Biology); type: biochemical
# T2 sequence (Q9UBN7 1-1215): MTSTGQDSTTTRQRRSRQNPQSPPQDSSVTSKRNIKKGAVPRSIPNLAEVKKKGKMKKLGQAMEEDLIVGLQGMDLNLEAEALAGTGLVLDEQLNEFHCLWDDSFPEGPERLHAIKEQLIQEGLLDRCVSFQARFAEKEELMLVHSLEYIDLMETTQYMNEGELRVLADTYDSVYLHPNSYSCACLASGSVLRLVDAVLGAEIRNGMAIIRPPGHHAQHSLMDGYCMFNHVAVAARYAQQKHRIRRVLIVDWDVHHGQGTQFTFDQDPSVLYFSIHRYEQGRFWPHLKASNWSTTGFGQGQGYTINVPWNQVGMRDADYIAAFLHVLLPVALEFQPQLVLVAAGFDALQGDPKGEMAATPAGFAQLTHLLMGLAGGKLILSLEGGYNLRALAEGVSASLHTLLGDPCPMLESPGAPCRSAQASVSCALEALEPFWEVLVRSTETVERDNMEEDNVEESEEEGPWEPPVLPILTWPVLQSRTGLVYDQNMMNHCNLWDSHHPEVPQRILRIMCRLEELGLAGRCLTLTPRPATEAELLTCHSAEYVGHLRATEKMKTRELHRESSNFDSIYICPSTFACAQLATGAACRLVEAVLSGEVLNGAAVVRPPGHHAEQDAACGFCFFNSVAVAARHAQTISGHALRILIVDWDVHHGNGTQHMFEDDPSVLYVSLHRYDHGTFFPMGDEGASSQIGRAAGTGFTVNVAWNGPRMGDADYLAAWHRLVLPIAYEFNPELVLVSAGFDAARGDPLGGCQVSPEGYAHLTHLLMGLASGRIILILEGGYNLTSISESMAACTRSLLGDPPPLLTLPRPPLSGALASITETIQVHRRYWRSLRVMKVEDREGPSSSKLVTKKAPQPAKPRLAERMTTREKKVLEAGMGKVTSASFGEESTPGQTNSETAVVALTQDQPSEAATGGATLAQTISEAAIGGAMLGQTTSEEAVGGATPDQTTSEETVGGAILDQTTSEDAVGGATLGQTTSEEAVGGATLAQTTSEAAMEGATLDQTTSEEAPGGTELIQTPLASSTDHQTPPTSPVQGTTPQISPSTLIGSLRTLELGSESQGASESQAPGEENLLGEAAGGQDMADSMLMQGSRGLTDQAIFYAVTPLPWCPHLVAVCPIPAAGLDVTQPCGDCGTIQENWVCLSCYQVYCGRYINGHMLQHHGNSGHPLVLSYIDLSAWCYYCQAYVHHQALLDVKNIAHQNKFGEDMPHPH
# Description: as §1
# HDAC9 = HDAC9 (Homo sapiens, UniProt Q9UKV0); experiment: In vitro HDAC activity assay (Reaction Biology); type: biochemical; conditions: cell-free; read-out: IC50 values of HDAC8 inhibitors, HDAC9
# Description: as §1
# [1] = system: neuroblastoma cell culture; experiment: Intracellular whole lysine acetylation via FACS; type: cell-based, human
# Description: Cells were collected, washed with PBS and fixed with 2% paraformaldehyde for 15 min at room temperature (RT). Cells were permeabilized by incubation with 50 μg/ml digitonin for 6 min at RT. Cells were incubated with primary antibody overnight at 4 °C. After staining with Cy3-conjugated anti-rabbit antibody, cells were analyzed by FACS using CellQuest software (BD Biosciences, San Jose, CA, USA). The following primary antibodies were used: anti-acetylated lysine (polyclonal; Cell Signaling) and anti-neurofilament-M (clone EP2460; Epitomics, Burlingame, CA, USA).
# PBMC = experiment: Western blot of histone 4 and α-tubulin acetylation in PBMC of treated mice; type: in vivo, mouse; conditions: MTD concentrations, 2 h after intraperitoneal injection
# Description: Whole blood (100 μl) was collected from the femoral vein of untreated athymic NMRI nude mice (HsdCpb:NMRI-Foxn1^nu; Harlan Laboratories Inc.), and respective animals were killed 2 h after intraperitoneal injection of substances. For the analysis of whole acetylation levels, mice were killed at half-life time of the inhibitors. Whole blood with heparin was added to RBC lysis buffer (diluted 1 : 10) (BioLegend, San Diego, CA, USA) at a ratio of 1 : 4. Next, red blood cell lysis was performed according to the manufacturer's instructions. PBMCs were lysed in SDS lysis buffer for western blot or processed for FACS analysis.
# Western blot analysis was performed as described previously.[15] For detection of phosphoproteins, PhosStop (Roche, Penzberg, Germany) was added to the lysis buffer. The following antibodies were used for detection: anti-HDAC8 (H-145) (polyclonal; Santa Cruz, Santa Cruz, CA, USA), anti-acetyl tubulin (clone 6-11B-1; Sigma), anti-acetyl-histone H4 (polyclonal; Upstate, Lake Placid, NY, USA), anti-acetyl-SMC3 (provided by Prof. K Shirahige, University of Tokyo, Tokyo, Japan), anti p21^waf1/cip1 (clone CP74; Merck), anti-Trk (C-14) (polyclonal; Santa Cruz), anti-neurofilament-M (polyclonal; Merck), anti-β-actin (clone AC-15; Sigma), anti-P-CREB (Ser133; Cell Signaling, Danvers, MA, USA), anti-CREB (48H2; Cell Signaling) and anti-GAPDH (clone 6C5; Merck).
# HDAC9, sequence (Q9UKV0 631-978 limits assumed): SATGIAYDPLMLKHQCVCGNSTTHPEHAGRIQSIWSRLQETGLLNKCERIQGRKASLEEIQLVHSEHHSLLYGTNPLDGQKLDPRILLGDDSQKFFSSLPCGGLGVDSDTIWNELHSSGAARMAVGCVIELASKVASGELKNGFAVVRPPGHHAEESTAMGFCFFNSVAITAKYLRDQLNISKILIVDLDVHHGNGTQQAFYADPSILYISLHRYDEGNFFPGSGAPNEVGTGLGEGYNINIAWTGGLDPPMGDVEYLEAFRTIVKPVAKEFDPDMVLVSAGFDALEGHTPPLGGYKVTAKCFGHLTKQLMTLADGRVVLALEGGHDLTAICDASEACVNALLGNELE
compound,measurement,setting,value
"O=C(NO)c1cccc2ccccc12 [Cpd2, 1-naphthohydroxamic acid]",pIC50,HDAC11,< 4.12
same,pIC50,"HDAC6; cell-free, read-out: IC50 values of HDAC8 inhibitors, HDAC6",4.12
same,concentrations above which HDAC6 and HDAC1 are potential off-target HDACs,HDAC6; from cell-free assays of HDACs 1–11,above 75 μM
same,pIC50,HDAC9,< 4.12
same,whole acetyl-lysine mean fluorescent values (Blank-corrected),"[1]; 20µM, solvent 34.4, second experiment",56.9
same,whole acetyl-lysine mean fluorescent values (Blank-corrected),"[1]; 40µM, solvent 24.7, IMR-32 cells, 24 h per Figure 1c",36.9
same,tubulin and histone 4 acetylation in PBMC,PBMC,absence of tubulin acetylation and absence of histone 4 acetylation

# Source: PMC4669789, “Selective inhibition of HDAC8 decreases neuroblastoma growth in vitro and in vivo and enhances retinoic acid-mediated differentiation” (Cell Death & Disease, 2015)
